Experimental data taken from patent US20220370440A1 (Lead Discovery Center GmbH, priority 2018, published 2022).
pIC50: −log10 of the molar value.

Assays:
[1] = target: Her2 Exon 20 INSYVMA Ba/F3 (Homo sapiens, UniProt P04626, DUP772-775, cells depend on it); assay: Her2 Exon 20 INSYVMA Ba/F3 CellTiter-Glo; format: cell-based; details: CellTiter-Glo, 72 h, read-out: Her2 Exon 20 INSYVMA Ba/F3 CTG IC50
Procedure: (§1) 2. Measurement of Cellular Activity
(§2) The CellTiter-Glo Luminescent Cell Viability Assay (Promega) is a homogeneous method of determining the number of viable cells in culture. It is based on quantification of ATP, indicating the presence of metabolically active cells. Cells are seeded on day 1 at cell numbers that assure assay linearity and optimal signal intensity. After incubation for 24 h in humidified chambers at 37° C. and 5% CO2, compounds in DMSO are added at different concentrations. Cells are further incubated for 72 h at 37° C. and 5% CO2. Cells treated with the compound vehicle DMSO are used as positive controls and cells treated with 10 μM Staurosporine serve as negative controls. At day 5 the CellTiter Glo Reagent is prepared according to the instructions of the kit (Promega Inc.): Reagent is mixed 1:1 with cell culture medium. Thereon, mixture and assay plates are equilibrated at room temperature for 20 min. Equal volumes of the reagent-medium-mixture is added to the volume of culture medium present in each well. The plates are mixed at ˜200 rpm for 2 minutes on an orbital shaker. The microplates are then incubated at room temperature for 10 minutes for stabilization of the luminescent signal. Following incubation the luminescence is recorded on a Victor microplate reader (Perkin Elmer) using a 200 ms integration time. The data is then analyzed with Excel using the XLFIT Plugin (dose response Fit 205) for IC50-determination. As quality control the Z′-factor is calculated from 16 positive and negative control values. Only assay results showing a Z′-factor ≥0.5 are used for further analysis.
(§3) Inhibition is indicated as IC50 [nM] (“−”=not measured). Compounds having an activity designated as “A” provided an IC50≤100 nM; compounds having an activity designated as “B” provided an 100 nM<IC50≤500 nM; compounds having an activity designated as “C” provided an 500 nM<IC50≤1000 nM; compounds having an activity designated as “D” provided an 1000 nM<IC50≤10000 nM; and compounds having an activity designated as “E” provided an IC50>10000 nM.

EGFR wt = EGFR wt (Homo sapiens, UniProt P00533); assay: EGFR wt Lance assay; format: biochemical
Procedure: (§4) Inhibition is indicated as […] [nM] (“−”=not measured). Compounds having an activity designated as “A” provided an IC50≤100 nM; compounds having an activity designated as “B” provided an 100 nM<IC50≤500 nM; compounds having an activity designated as “C” provided an 500 nM<IC50≤1000 nM; compounds having an activity designated as “D” provided an 1000 nM<IC50≤100000 nM; and compounds having an activity designated as “E” provided an IC50>10000 nM.

A431 = A431 CellTiter-Glo; format: cell-based; details: Homo sapiens, A-431; 72 h compound incubation; read-out: A431 CTG IC50
Procedure: as §1, §2, §4

HER2 INS YVMA = target: T1, HER2 INS YVMA (Homo sapiens, UniProt P04626, INS775YVMA); assay: Lance Kinase Activity Assay, HER2 INS YVMA (Her2 Exon 20 INSYVMA Lance); format: biochemical; details: biochemical Lance assay
T1 construct: purchased DPF
Procedure: 1. Measurement of HER2 INS YVMA Kinase Activity
This protocol describes how the Lance Kinase Activity Assay was performed to determine IC50 values of compounds of general formula (I) against HER2 INS YVMA. The principle behind this enzymatic assay is based upon the phosphorylation of the Ulight-peptide substrate. It is detected by using a specific EU-labeled anti-phospho peptide antibody. The binding of the Eu labeled anti-phospho peptide antibody to the phosphorylated ULight labeled peptide gives rise to a FRET-signal.
Binding of an inhibitor to the kinase prevents phosphorylation of the Ulight-substrate, resulting in a loss of FRET. In table 2 is summarized the relevant information for the LANCE assay.
The compounds of general formula (I) summarized in Table 3 were serial diluted from a 10 mM DMSO stock solution 1:3 over 8 steps in a total volume of 20 μl.
For every sample, 8 μl of kinase-substrate mix was transferred into a suitable assay plate (e.g. Corning #3673). Compound was added via pintool transfer (10 nl/well) using a Biomek FX robot (BeckmanCoulter). Reaction was started by addition of 2 μl ATP working solution and mixed using variomag teleshaker (Thermo Fischer Scientific). After 1 h incubation at room temperature the reaction was stopped with 10 μl detection mix containing the Eu-labeled phosphospecific antibody and 10 mM EDTA. After a second incubation period of 1 h at room temperature the FRET signal was measured at 340 nm excitation, 665 nm and 615 nm emission (for the ULight-substrate and Eu-AB, respectively) with an Envision spectrophotometer (Perkin Elmer, Waltham, Mass., USA) with 50 μs delay and 300 μs integration time. IC50 values were determined from the sigmoidal dose response curves with the software Quattro Workflow (Quattro GmbH, Munich, Germany).

H1975 = H1975 CellTiter-Glo; format: cell-based; details: Homo sapiens, NCI-H1975; 72 h compound incubation; read-out: H1975 CTG IC50
Procedure: as §1, §2, §4

[2] = target: EGFR Exon 20 INSNPH Ba/F3 (Homo sapiens, UniProt P00533, DUP771-773, cells depend on it); assay: EGFR Exon 20 INSNPH Ba/F3 CellTiter-Glo; format: cell-based; details: CellTiter-Glo, 72 h, read-out: EGFR Exon 20 INSNPH Ba/F3 CTG IC50
Procedure: as §1, §2, §3

EGFR T790ML858R = EGFR T790ML858R (Homo sapiens, UniProt P00533, L858R/T790M); assay: EGFR T790ML858R Lance assay; format: biochemical
Procedure: as §4

Chain of Her2 Exon 20 INSYVMA Ba/F3 (P04626 with tags, fused parts or gaps DUP772-775): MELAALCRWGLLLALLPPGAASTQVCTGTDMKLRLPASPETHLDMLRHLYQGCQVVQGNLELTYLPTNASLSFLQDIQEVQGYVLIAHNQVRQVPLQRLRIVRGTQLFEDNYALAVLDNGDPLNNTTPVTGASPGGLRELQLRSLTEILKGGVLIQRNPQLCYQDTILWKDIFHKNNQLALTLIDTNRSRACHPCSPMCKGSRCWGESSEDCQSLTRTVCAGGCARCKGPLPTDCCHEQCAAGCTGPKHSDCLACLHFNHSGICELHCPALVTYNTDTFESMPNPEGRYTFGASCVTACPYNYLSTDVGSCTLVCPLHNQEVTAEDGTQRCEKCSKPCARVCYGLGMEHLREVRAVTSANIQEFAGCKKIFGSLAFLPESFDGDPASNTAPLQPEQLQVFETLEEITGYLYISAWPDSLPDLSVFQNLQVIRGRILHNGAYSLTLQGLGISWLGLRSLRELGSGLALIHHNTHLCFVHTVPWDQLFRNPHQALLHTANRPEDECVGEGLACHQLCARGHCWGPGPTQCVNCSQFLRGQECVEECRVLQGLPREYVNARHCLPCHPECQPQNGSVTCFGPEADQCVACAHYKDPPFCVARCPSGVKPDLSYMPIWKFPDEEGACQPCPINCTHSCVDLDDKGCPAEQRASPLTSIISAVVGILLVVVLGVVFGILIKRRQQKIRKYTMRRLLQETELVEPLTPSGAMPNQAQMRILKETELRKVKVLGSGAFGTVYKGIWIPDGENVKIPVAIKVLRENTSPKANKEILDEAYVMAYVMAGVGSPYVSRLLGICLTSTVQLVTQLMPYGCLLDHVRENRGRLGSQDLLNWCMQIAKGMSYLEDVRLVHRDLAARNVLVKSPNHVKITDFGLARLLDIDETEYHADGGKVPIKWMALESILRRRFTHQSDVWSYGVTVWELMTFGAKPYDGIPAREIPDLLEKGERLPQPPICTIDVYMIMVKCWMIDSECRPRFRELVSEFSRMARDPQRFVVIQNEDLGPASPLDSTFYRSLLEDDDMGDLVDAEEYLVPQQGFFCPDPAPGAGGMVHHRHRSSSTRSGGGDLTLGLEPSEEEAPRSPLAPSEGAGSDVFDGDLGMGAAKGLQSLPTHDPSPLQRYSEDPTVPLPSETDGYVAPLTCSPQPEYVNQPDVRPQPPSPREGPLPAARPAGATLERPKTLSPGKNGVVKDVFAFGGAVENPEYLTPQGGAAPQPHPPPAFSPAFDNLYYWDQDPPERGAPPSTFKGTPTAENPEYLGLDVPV
T1 sequence (P04626 with tags, fused parts or gaps INS775YVMA): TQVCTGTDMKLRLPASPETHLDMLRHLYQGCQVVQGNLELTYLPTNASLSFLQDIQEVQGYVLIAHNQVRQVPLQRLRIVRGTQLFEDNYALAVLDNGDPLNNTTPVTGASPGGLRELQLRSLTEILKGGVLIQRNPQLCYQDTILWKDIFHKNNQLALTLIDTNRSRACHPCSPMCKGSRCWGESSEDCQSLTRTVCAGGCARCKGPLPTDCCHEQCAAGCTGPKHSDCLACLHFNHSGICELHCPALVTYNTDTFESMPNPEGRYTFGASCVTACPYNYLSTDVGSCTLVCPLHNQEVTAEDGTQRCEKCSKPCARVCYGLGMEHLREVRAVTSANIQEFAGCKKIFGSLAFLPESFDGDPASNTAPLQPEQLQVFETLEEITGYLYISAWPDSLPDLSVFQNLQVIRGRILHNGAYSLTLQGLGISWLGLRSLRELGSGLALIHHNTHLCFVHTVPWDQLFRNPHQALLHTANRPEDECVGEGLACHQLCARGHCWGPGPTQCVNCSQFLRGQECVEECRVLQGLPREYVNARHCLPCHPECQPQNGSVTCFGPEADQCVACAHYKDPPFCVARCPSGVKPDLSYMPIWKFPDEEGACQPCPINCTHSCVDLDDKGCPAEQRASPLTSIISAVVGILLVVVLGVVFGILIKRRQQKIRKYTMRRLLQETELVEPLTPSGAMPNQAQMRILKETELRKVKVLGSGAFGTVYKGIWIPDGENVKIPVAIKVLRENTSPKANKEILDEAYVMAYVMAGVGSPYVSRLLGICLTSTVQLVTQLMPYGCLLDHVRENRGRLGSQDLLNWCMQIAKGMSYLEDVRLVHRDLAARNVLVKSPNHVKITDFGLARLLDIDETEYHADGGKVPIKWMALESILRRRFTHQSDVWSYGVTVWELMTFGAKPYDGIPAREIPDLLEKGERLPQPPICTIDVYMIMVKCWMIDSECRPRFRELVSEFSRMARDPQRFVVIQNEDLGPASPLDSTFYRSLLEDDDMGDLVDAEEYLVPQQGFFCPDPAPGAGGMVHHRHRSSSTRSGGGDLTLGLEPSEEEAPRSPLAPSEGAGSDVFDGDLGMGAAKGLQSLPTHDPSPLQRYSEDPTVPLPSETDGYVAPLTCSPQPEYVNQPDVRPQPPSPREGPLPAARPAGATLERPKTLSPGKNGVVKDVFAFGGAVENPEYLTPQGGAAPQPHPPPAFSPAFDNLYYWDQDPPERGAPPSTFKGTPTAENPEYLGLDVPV
Chain of EGFR wt (P00533 25-1210): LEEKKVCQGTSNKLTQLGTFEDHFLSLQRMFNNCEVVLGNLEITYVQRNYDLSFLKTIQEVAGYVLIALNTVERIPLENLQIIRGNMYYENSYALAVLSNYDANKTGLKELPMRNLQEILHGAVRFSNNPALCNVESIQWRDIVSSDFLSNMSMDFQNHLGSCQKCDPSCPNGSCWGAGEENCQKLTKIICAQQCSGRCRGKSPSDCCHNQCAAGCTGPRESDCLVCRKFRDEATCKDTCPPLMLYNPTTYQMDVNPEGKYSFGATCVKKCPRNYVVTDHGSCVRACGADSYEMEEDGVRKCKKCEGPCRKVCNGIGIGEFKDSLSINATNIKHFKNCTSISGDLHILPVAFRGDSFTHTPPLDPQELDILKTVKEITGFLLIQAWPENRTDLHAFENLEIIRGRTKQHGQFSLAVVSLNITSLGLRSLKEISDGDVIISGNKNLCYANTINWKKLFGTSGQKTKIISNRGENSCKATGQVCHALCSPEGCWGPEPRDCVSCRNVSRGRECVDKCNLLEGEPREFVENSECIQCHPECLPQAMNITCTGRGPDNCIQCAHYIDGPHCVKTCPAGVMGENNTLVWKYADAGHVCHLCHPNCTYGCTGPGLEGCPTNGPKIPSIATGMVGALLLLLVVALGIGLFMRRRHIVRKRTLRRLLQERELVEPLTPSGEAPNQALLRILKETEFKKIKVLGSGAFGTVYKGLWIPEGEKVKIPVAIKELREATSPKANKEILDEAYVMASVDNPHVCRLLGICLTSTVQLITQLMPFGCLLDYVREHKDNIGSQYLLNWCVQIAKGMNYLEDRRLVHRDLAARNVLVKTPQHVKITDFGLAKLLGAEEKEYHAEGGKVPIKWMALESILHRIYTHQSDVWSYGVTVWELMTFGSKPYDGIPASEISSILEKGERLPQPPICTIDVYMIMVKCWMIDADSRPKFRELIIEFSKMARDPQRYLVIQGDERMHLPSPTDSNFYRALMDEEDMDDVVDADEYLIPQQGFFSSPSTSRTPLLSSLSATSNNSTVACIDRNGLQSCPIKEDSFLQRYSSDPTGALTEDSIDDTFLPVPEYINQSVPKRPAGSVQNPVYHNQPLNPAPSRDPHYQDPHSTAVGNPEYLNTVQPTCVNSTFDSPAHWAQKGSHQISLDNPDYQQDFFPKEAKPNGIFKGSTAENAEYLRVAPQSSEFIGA
Chain of EGFR T790ML858R (P00533 25-1210 T790M/L858R): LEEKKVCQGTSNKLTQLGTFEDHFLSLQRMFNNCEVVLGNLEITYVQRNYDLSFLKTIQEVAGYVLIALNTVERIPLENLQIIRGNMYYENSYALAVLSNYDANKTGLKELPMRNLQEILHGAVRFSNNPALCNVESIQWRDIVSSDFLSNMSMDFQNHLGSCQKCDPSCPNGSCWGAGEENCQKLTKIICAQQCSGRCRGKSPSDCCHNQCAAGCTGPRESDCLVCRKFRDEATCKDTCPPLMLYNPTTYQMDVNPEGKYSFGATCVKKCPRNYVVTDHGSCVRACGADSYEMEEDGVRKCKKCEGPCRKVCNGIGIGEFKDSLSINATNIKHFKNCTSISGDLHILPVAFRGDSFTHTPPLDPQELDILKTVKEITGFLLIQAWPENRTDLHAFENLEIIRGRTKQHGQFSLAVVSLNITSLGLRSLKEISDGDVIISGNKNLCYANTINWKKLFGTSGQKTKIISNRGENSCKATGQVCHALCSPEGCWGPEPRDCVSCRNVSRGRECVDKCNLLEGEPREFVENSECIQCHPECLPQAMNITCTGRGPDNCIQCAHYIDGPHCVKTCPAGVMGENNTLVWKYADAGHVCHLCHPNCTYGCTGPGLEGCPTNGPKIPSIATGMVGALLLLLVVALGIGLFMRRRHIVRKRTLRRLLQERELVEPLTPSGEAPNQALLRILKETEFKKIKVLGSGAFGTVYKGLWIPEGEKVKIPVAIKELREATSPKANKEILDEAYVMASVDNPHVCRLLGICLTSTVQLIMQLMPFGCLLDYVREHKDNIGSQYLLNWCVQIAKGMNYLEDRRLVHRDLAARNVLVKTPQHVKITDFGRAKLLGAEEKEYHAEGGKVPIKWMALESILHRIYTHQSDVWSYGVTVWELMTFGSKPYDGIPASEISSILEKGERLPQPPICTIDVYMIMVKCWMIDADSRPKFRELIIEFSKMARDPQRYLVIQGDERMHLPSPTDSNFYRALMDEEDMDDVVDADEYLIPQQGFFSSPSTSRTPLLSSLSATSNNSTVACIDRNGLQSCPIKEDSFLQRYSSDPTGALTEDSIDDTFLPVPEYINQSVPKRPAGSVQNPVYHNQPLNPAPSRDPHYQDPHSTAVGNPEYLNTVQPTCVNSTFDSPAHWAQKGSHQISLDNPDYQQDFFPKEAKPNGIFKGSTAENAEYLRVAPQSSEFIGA

| GI50 [1] | pIC50 (EGFR wt) | pIC50 (A431) | pIC50 (HER2 INS YVMA) | pIC50 (H1975) | GI50 [2] | pIC50 (EGFR T790ML858R) | SMILES |
| --- | --- | --- | --- | --- | --- | --- | --- |
| 1000 to 10000 nM | ≥ 7.00 | 4.00 to 6.00 | 5.00 to 6.00 | 4.00 to 6.00 | 1000 to 10000 nM | 6.00 to 6.30 | C=CC(=O)Nc1cc(-c2c(-c3ccc(N4CCOCC4)nc3)[nH]c3ncc(C(=O)OC(C)C)cc23)ccc1C [Example 171, isopropyl 3-(3-acrylamido-4-methylphenyl)-2-(6-morpholinopyridin-3-yl)-1H-pyrrolo[2,3-b]pyridine-5-carboxylate] |
| 1000 to 10000 nM | ≥ 7.00 | < 5.00 | 5.00 to 6.00 | 4.00 to 6.00 | 1000 to 10000 nM | 6.00 to 6.30 | C=CC(=O)Nc1cc(-c2c(-c3cccc(N4CCN(C(C)=O)CC4)c3)[nH]c3ncc(C(=O)OC(C)C)cc23)ccc1C [Example 185, isopropyl 2-(3-(4-acetylpiperazin-1-yl)phenyl)-3-(3-acrylamido-4-methylphenyl)-1H-pyrrolo[2,3-b]pyridine-5-carboxylate] |
| 100 to 500 nM | ≥ 7.00 | 4.00 to 6.00 | ≥ 7.00 | 6.00 to 6.30 | 100 to 500 nM | ≥ 7.00 | C=CC(=O)Nc1cc(-c2c(-c3ccnc(N4CCN(C)CC4)c3)[nH]c3ncc(C(=O)OC(C)C)cc23)cc(F)c1C [Example 180, isopropyl 3-(3-acrylamido-5-fluoro-4-methylphenyl)-2-(2-(4-methylpiperazin-1-yl)pyridin-4-yl)-1H-pyrrolo[2,3-b]pyridine-5-carboxylate] |
| 100 to 500 nM | ≥ 7.00 | 6.30 to 7.00 | ≥ 7.00 | ≥ 7.00 | 100 to 500 nM | ≥ 7.00 | C=CC(=O)N1CCc2ccc(-c3c(-c4ccnc(N5CCN(C)CC5)c4)[nH]c4nccc(OCC)c34)cc21 [Example 105] |
| 100 to 500 nM | ≥ 7.00 | 6.00 to 6.30 | ≥ 7.00 | 6.30 to 7.00 | 100 to 500 nM | ≥ 7.00 | C=CC(=O)N1CCOc2ccc(-c3c(-c4cccc(OCCN5CCCC5)c4)[nH]c4nccc(Cl)c34)cc21 [Example 103, 1-(6-(4-chloro-2-(3-(2-(pyrrolidin-1-yl)ethoxy)phenyl)-1H-pyrrolo[2,3-b]pyridin-3-yl)-2H-benzo[b][1,4]oxazin-4(3H)-yl)prop-2-en-1-one] |
| 100 to 500 nM | ≥ 7.00 | 4.00 to 6.00 | ≥ 7.00 | 6.30 to 7.00 | ≤ 100 nM | ≥ 7.00 | C=CC(=O)Nc1cc(-c2c(-c3ccc(OCCN(C)C)cc3)[nH]c3ncc(C(=O)OC(C)C)c(C)c23)ccc1C [Example 205, isopropyl 3-(3-acrylamido-4-methylphenyl)-2-(4-(2-(dimethylamino)ethoxy)phenyl)-4-methyl-1H-pyrrolo[2,3-b]pyridine-5-carboxylate] |
| 100 to 500 nM | ≥ 7.00 | 4.00 to 6.00 | ≥ 7.00 | 6.30 to 7.00 | 100 to 500 nM | ≥ 7.00 | C=CC(=O)Nc1cc(-c2c(-c3cccc(OCCCN(C)C)c3)[nH]c3ncc(C(=O)OC(C)C)cc23)ccc1C [Example 183, isopropyl 3-(3-acrylamido-4-methylphenyl)-2-(3-(3-(dimethylamino)propoxy)phenyl)-1H-pyrrolo[2,3-b]pyridine-5-carboxylate] |
| 100 to 500 nM | ≥ 7.00 | 4.00 to 6.00 | ≥ 7.00 | 6.30 to 7.00 | 100 to 500 nM | ≥ 7.00 | C=CC(=O)N1CCOc2ccc(-c3c(-c4ccc(OCCN5CCCC5)cc4)[nH]c4nccc(Cl)c34)cc21 [Example 101, 1-(6-(4-chloro-2-(4-(2-(pyrrolidin-1-yl)ethoxy)phenyl)-1H-pyrrolo[2,3-b]pyridin-3-yl)-2H-benzo[b][1,4]oxazin-4(3H)-yl)prop-2-en-1-one] |
